Experimental data published in ChEMBL document CHEMBL4270599, “Synthesis of a 3'-C-ethynyl-β-d-ribofuranose purine nucleoside library: Discovery of C7-deazapurine analogs as potent antiproliferative nucleosides” (Eur J Med Chem, 2018).

Columns and labels:
Type in all cases: functional
HT-29 = assay: Growth inhibition of human HT-29 cells assessed as cell growth at 10^-5 M incubated for 48 hrs by sulforhodamine B assay relative to control; details: HT-29, 48 h, read-out: Activity
SF-268 = assay: Growth inhibition of human SF268 cells assessed as cell growth at 10^-4 M incubated for 48 hrs by sulforhodamine B assay relative to control; details: SF-268, 48 h, read-out: Activity
HOP-92 [1] = assay: Growth inhibition of human HOP92 cells assessed as cell growth at 10^-5 M incubated for 48 hrs by sulforhodamine B assay relative to control; details: HOP-92, 48 h, read-out: Activity
SNB-19 = assay: Growth inhibition of human SNB19 cells assessed as cell growth at 10^-4 M incubated for 48 hrs by sulforhodamine B assay relative to control; details: SNB-19, 48 h, read-out: Activity
OVCAR-8 [2] = assay: Growth inhibition of human OVCAR8 cells assessed as cell growth at 10^-5 M incubated for 48 hrs by sulforhodamine B assay relative to control; details: OVCAR-8, 48 h, read-out: Activity
NCI-H522 [3] = assay: Growth inhibition of human NCI-H522 cells assessed as cell growth at 10^-5 M incubated for 48 hrs by sulforhodamine B assay relative to control; details: NCI-H522, 48 h, read-out: Activity
COLO 205 = assay: Growth inhibition of human COLO205 cells assessed as cell growth at 10^-6 M incubated for 48 hrs by sulforhodamine B assay relative to control; details: COLO 205, 48 h, read-out: Activity
MDA-MB-468 [4] = assay: Growth inhibition of human MDA-MB-468 cells assessed as cell growth at 10^-4 M incubated for 48 hrs by sulforhodamine B assay relative to control; details: MDA-MB-468, 48 h, read-out: Activity
T47D [5] = assay: Growth inhibition of human T47D cells assessed as cell growth at 10^-5 M incubated for 48 hrs by sulforhodamine B assay relative to control; details: read-out: Activity
UO-31 = assay: Growth inhibition of human UO31 cells assessed as cell growth at 10^-4 M incubated for 48 hrs by sulforhodamine B assay relative to control; details: UO-31, 48 h, read-out: Activity
MDA-MB-435 = assay: Growth inhibition of human MDA-MB-435 cells assessed as cell growth at 10^-4 M incubated for 48 hrs by sulforhodamine B assay relative to control; details: MDA-MB-435, 48 h, read-out: Activity
HL-60(TB) = assay: Growth inhibition of human HL-60(TB) cells assessed as cell growth at 10^-4 M incubated for 48 hrs by sulforhodamine B assay relative to control; details: HL-60, 48 h, read-out: Activity
RPMI-8226 = assay: Growth inhibition of human RPMI8226 cells assessed as cell growth at 10^-4 M incubated for 48 hrs by sulforhodamine B assay relative to control; details: RPMI-8226, 48 h, read-out: Activity
Hs-578T = assay: Growth inhibition of human Hs 578T cells assessed as cell growth at 10^-4 M incubated for 48 hrs by sulforhodamine B assay relative to control; details: read-out: Activity
NCI-H522 [6] = assay: Growth inhibition of human NCI-H522 cells assessed as cell growth at 10^-4 M incubated for 48 hrs by sulforhodamine B assay relative to control; details: NCI-H522, 48 h, read-out: Activity
NCI-H322M = assay: Growth inhibition of human NCI-H322M cells assessed as cell growth at 10^-4 M incubated for 48 hrs by sulforhodamine B assay relative to control; details: read-out: Activity
SK-MEL-2 [7] = assay: Growth inhibition of human SK-MEL-2 cells assessed as cell growth at 10^-5 M incubated for 48 hrs by sulforhodamine B assay relative to control; details: SK-MEL-2, 48 h, read-out: Activity
HOP-92 [8] = assay: Growth inhibition of human HOP92 cells assessed as cell growth at 10^-4 M incubated for 48 hrs by sulforhodamine B assay relative to control; details: HOP-92, 48 h, read-out: Activity
SK-OV-3 = assay: Growth inhibition of human SKOV3 cells assessed as cell growth at 10^-5 M incubated for 48 hrs by sulforhodamine B assay relative to control; details: SK-OV-3, 48 h, read-out: Activity
BT-549 = assay: Growth inhibition of human BT549 cells assessed as cell growth at 10^-4 M incubated for 48 hrs by sulforhodamine B assay relative to control; details: BT-549, 48 h, read-out: Activity
NCI-H460 = assay: Growth inhibition of human NCI-H460 cells assessed as cell growth at 10^-4 M incubated for 48 hrs by sulforhodamine B assay relative to control; details: NCI-H460, 48 h, read-out: Activity
A498 = assay: Growth inhibition of human A498 cells assessed as cell growth at 10^-5 M incubated for 48 hrs by sulforhodamine B assay relative to control; details: A498, 48 h, read-out: Activity
SNB-75 [9] = assay: Growth inhibition of human SNB75 cells assessed as cell growth at 10^-5 M incubated for 48 hrs by sulforhodamine B assay relative to control; details: SNB-75, 48 h, read-out: Activity
SK-MEL-2 [10] = assay: Growth inhibition of human SK-MEL-2 cells assessed as cell growth at 10^-4 M incubated for 48 hrs by sulforhodamine B assay relative to control; details: SK-MEL-2, 48 h, read-out: Activity
IGROV-1 = assay: Growth inhibition of human IGROV1 cells assessed as cell growth at 10^-6 M incubated for 48 hrs by sulforhodamine B assay relative to control; details: IGROV-1, 48 h, read-out: Activity
SNB-75 [11] = assay: Growth inhibition of human SNB75 cells assessed as cell growth at 10^-4 M incubated for 48 hrs by sulforhodamine B assay relative to control; details: SNB-75, 48 h, read-out: Activity
786-0 = assay: Growth inhibition of human 786-0 cells assessed as cell growth at 10^-5 M incubated for 48 hrs by sulforhodamine B assay relative to control; details: 786-0, 48 h, read-out: Activity
OVCAR-8 [12] = assay: Growth inhibition of human OVCAR8 cells assessed as cell growth at 10^-4 M incubated for 48 hrs by sulforhodamine B assay relative to control; details: OVCAR-8, 48 h, read-out: Activity
OVCAR-3 = assay: Growth inhibition of human OVCAR3 cells assessed as cell growth at 10^-5 M incubated for 48 hrs by sulforhodamine B assay relative to control; details: OVCAR-3, 48 h, read-out: Activity
HCC 2998 = assay: Growth inhibition of human HCC2998 cells assessed as cell growth at 10^-5 M incubated for 48 hrs by sulforhodamine B assay relative to control; details: HCC 2998, 48 h, read-out: Activity
MDA-MB-468 [13] = assay: Growth inhibition of human MDA-MB-468 cells assessed as cell growth at 10^-6 M incubated for 48 hrs by sulforhodamine B assay relative to control; details: MDA-MB-468, 48 h, read-out: Activity
SK-MEL-5 = assay: Growth inhibition of human SK-MEL-5 cells assessed as cell growth at 10^-4 M incubated for 48 hrs by sulforhodamine B assay relative to control; details: SK-MEL-5, 48 h, read-out: Activity
T47D [14] = assay: Growth inhibition of human T47D cells assessed as cell growth at 10^-4 M incubated for 48 hrs by sulforhodamine B assay relative to control; details: read-out: Activity

Row | SMILES | growth at 10 µM (HT-29) [%] | growth at 100 µM (SF-268) [%] | growth at 10 µM (HOP-92 [1]) [%] | growth at 100 µM (SNB-19) [%] | growth at 10 µM (OVCAR-8 [2]) [%] | growth at 10 µM (NCI-H522 [3]) [%] | growth at 1 µM (COLO 205) [%] | growth at 100 µM (MDA-MB-468 [4]) [%] | growth at 10 µM (T47D [5]) [%] | growth at 100 µM (UO-31) [%] | growth at 100 µM (MDA-MB-435) [%] | growth at 100 µM (HL-60(TB)) [%] | growth at 100 µM (RPMI-8226) [%] | growth at 100 µM (Hs-578T) [%] | growth at 100 µM (NCI-H522 [6]) [%] | growth at 100 µM (NCI-H322M) [%] | growth at 10 µM (SK-MEL-2 [7]) [%] | growth at 100 µM (HOP-92 [8]) [%] | growth at 10 µM (SK-OV-3) [%] | growth at 100 µM (BT-549) [%] | other results
1 | C#C[C@@]1(O)[C@@H](CO)O[C@@H](n2cc(Br)c3c(N)ncnc32)[C@@H]1O | 1 to 3 |  |  |  |  |  |  |  |  |  |  |  |  |  |  |  |  |  |  |  | 
2 | C#C[C@@]1(O)[C@@H](CO)O[C@@H](n2cc(I)c3c(N)ncnc32)[C@@H]1O |  | -7 |  |  |  |  |  |  |  |  |  |  |  |  |  |  |  |  |  |  | 
3 | C#C[C@@]1(O)[C@@H](CO)O[C@@H](n2ccc3c(N)ncnc32)[C@@H]1O |  | -8 | -29 | -32 | -32 | -21 | 40 | -62 | -61 | -37 | -76 | -38 | 2 | 2 | -42 | -65 | -15 | -87 | -20 | -95 | growth at 100 µM (NCI-H460): -13%; growth at 10 µM (A498): -60%; growth at 10 µM (SNB-75 [9]): -64%; growth at 100 µM (SK-MEL-2 [10]): -34%; growth at 1 µM (IGROV-1): 63%; growth at 100 µM (SNB-75 [11]): -42%; growth at 10 µM (786-0): -18%; growth at 100 µM (OVCAR-8 [12]): -65%; growth at 10 µM (OVCAR-3): 3%; growth at 10 µM (HCC 2998): -76%; growth at 1 µM (MDA-MB-468 [13]): 64%; growth at 100 µM (SK-MEL-5): -99%; growth at 100 µM (T47D [14]): -71%
4 | C#C[C@@]1(O)[C@@H](CO)O[C@@H](n2cc(F)c3c(N)ncnc32)[C@@H]1O | 2 |  | -33 | -45 | -12 | -24 | 7 | -68 | -39 | -30 | -63 | -32 | -21 | 8 | -40 | -30 | -26 | -47 | -26 | -42 | growth at 100 µM (NCI-H460): -38%; growth at 10 µM (A498): -77%; growth at 10 µM (SNB-75 [9]): -90%; growth at 100 µM (SK-MEL-2 [10]): -36%; growth at 1 µM (IGROV-1): 6%; growth at 100 µM (SNB-75 [11]): -86%; growth at 10 µM (786-0): -52%; growth at 100 µM (OVCAR-8 [12]): -27%; growth at 10 µM (OVCAR-3): 5%; growth at 10 µM (HCC 2998): -45%; growth at 1 µM (MDA-MB-468 [13]): 13%; growth at 100 µM (SK-MEL-5): -93%; growth at 100 µM (T47D [14]): -77%
